Results published in PubChem BioAssay AID248 (DTP/NCI, 2004).
Several values for one entry are separate records, joined by “and”; a condition that tells them apart may be missing. Equal entries are not always repeated. Toxic doses and inconclusive results are not listed. Cut-off read from the data, not from the text of the source: active = T/C of 150% or more; inactive = T/C below 125%.

Test system: L1210 leukemia ip in BDF1 mice, survival T/C
Assay: NCI In Vivo Anticancer Drug Screen. Data for tumor model L1210 Leukemia (intraperitoneal) in B6D2F1 (BDF1) mice
Details: endpoint: mean survival time, higher = longer survival
Summary of the method: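 Tumor cells were implanted, animals were treated, and survival was followed. The result divides the treated measurement by the vehicle-control measurement.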

[1] = dose: 100.0 mg/kg/injection, schedule: Q01DX001 (ip), vehicle: saline with Tween-80
[2] = dose: 400.0 mg/kg/injection, schedule: Q01DX001 (ip), vehicle: saline with Tween-80
[3] = dose: 100.0 mg/kg/injection, schedule: Q04DX003 (ip), vehicle: saline
[4] = dose: 200.0 mg/kg/injection, schedule: Q04DX003 (ip), vehicle: saline
[5] = dose: 400.0 mg/kg/injection, schedule: Q04DX003 (ip), vehicle: saline
[6] = dose: 100.0 mg/kg/injection, schedule: Q04DX003 (ip), vehicle: saline with Tween-80
[7] = dose: 100.0 mg/kg/injection, schedule: Q01DX009 (ip), vehicle: saline
[8] = dose: 200.0 mg/kg/injection, schedule: Q01DX009 (ip), vehicle: saline
[9] = dose: 100.0 mg/kg/injection, schedule: Q04DX002 (ip), vehicle: Klucel (hydroxypropylcellulose) (HPC)
[10] = dose: 200.0 mg/kg/injection, schedule: Q04DX002 (ip), vehicle: Klucel (hydroxypropylcellulose) (HPC)
[11] = dose: 400.0 mg/kg/injection, schedule: Q04DX002 (ip), vehicle: Klucel (hydroxypropylcellulose) (HPC)
[12] = dose: 200.0 mg/kg/injection, schedule: Q04DX003 (ip), vehicle: saline with Tween-80
[13] = dose: 100.0 mg/kg/injection, schedule: Q01DX001 (ip), vehicle: saline
[14] = dose: 200.0 mg/kg/injection, schedule: Q01DX001 (ip), vehicle: saline
[15] = dose: 400.0 mg/kg/injection, schedule: Q01DX001 (ip), vehicle: saline
[16] = dose: 400.0 mg/kg/injection, schedule: Q04DX003 (ip), vehicle: saline with Tween-80

Measured: T/C

C#CC1(OCC(O)CO)CCCCC1 (stereo not drawn)
inactive: dose: 25.0 mg/kg/injection, schedule: Q01DX009 (ip), vehicle: water 115 % of control | dose: 50.0 mg/kg/injection, schedule: Q01DX009 (ip), vehicle: water 110 % of control | dose: 100.0 mg/kg/injection, schedule: Q01DX009 (ip), vehicle: water 100 % of control | dose: 200.0 mg/kg/injection, schedule: Q01DX009 (ip), vehicle: water 97 % of control

COc1cc(/C=N/[N+](C)(C)C)ccc1O
inactive: dose: 12.5 mg/kg/injection, schedule: Q01DX009 (ip), vehicle: saline with Tween-80 94 % of control | dose: 12.5 mg/kg/injection, schedule: Q04DX003 (ip), vehicle: saline with Tween-80 96 % of control | dose: 25.0 mg/kg/injection, schedule: Q01DX009 (ip), vehicle: saline with Tween-80 96 % of control | dose: 25.0 mg/kg/injection, schedule: Q04DX003 (ip), vehicle: saline with Tween-80 93 % of control | dose: 50.0 mg/kg/injection, schedule: Q04DX003 (ip), vehicle: saline with Tween-80 97 % of control

COC(=O)CCNc1ccccc1-c1ccccc1
inactive: dose: 100.0 mg/kg/injection, schedule: Q04DX002 (ip), vehicle: saline 95 % of control | dose: 200.0 mg/kg/injection, schedule: Q04DX002 (ip), vehicle: saline 114 % of control | dose: 400.0 mg/kg/injection, schedule: Q04DX002 (ip), vehicle: saline 103 % of control

COc1ccc(/C=C2/Oc3cc(O)ccc3C2=O)cc1
inactive: [1] 90 % of control | dose: 200.0 mg/kg/injection, schedule: Q01DX001 (ip), vehicle: saline with Tween-80 93 % of control | [2] 86 % of control

Cc1cc(C)cc(-n2nnc3ccccc3c2=O)c1
inactive: dose: 100.0 mg/kg/injection, schedule: Q01DX009 (ip), vehicle: Klucel (hydroxypropylcellulose) (HPC) 102 % of control | [3] 91 % of control | dose: 200.0 mg/kg/injection, schedule: Q01DX009 (ip), vehicle: Klucel (hydroxypropylcellulose) (HPC) 98 % of control | [4] 93 % of control | dose: 400.0 mg/kg/injection, schedule: Q01DX009 (ip), vehicle: Klucel (hydroxypropylcellulose) (HPC) 101 % of control | [5] 88 % of control

C[N+](C)(CC(=O)Nc1ccc(Cl)c(Cl)c1)CC(=O)c1ccc(Cl)cc1
inactive: dose: 6.25 mg/kg/injection, schedule: Q01DX009 (ip), vehicle: saline 96 % of control | dose: 12.5 mg/kg/injection, schedule: Q01DX009 (ip), vehicle: saline 96 % of control | dose: 25.0 mg/kg/injection, schedule: Q01DX009 (ip), vehicle: saline 89 % of control | [6] 92 % of control

O=[N+]([O-])c1cc(S(=O)(=O)c2ccccc2)ccc1S(=O)(=O)c1ccccc1
inactive: dose: 50.0 mg/kg/injection, schedule: Q01DX005 (ip), vehicle: saline with Tween-80 99 % of control | dose: 100.0 mg/kg/injection, schedule: Q01DX005 (ip), vehicle: saline with Tween-80 94 % of control | dose: 400.0 mg/kg/injection, schedule: Q01DX005 (ip), vehicle: saline with Tween-80 89 % of control

CNCC(OC)c1ccc(O)c(O)c1 (stereo not drawn)
inactive: [7] 105 % of control | [3] 108 % of control | [8] 105 % of control | [4] 106 % of control | [5] 108 % of control

COC1OC(CI)C(OC(C)=O)C(OC(C)=O)C1OS(C)(=O)=O (stereo not drawn)
inactive: [9] 97 % of control | [10] 106 % of control | [11] 91 % of control

CCCC1N(C)CCCN1C
inactive: [6] 114 % of control | [12] 102 % of control

CCCC(C)NCCOC(=O)Nc1ccccc1 (stereo not drawn)
inactive: dose: 75.0 mg/kg/injection, schedule: Q01DX001 (ip), vehicle: saline 91 % of control | dose: 150.0 mg/kg/injection, schedule: Q01DX001 (ip), vehicle: saline 101 % of control

CC(=O)OC1CCC2(C)C(CCC3C2CCC2(C)C3CC3OC(CCCC(C)CO)C(C)C32)C1 (stereo not drawn)
inactive: dose: 25.0 mg/kg/injection, schedule: Q01DX001 (ip), vehicle: saline with Tween-80 88 % of control | dose: 50.0 mg/kg/injection, schedule: Q01DX001 (ip), vehicle: saline with Tween-80 98 % of control | [1] 95 % of control | [2] 95 % of control

CC(=O)C(c1ccccc1)N(C)C(=O)c1ccccc1 (stereo not drawn)
inactive: dose: 100.0 mg/kg/injection, schedule: Q04DX003 (ip), vehicle: acetone 93 % of control | dose: 200.0 mg/kg/injection, schedule: Q04DX003 (ip), vehicle: acetone 86 % of control | dose: 400.0 mg/kg/injection, schedule: Q04DX003 (ip), vehicle: acetone 89 % of control

O=C(OCC1OC(Cl)C(OC(=O)c2ccccc2)C1OC(=O)c1ccccc1)c1ccccc1 (stereo not drawn)
inactive: dose: 100.0 mg/kg/injection, schedule: Q01DX001 (sc), vehicle: olive oil, sesame oil, peanut oil 100 % of control | dose: 200.0 mg/kg/injection, schedule: Q01DX001 (sc), vehicle: olive oil, sesame oil, peanut oil 100 % of control | dose: 400.0 mg/kg/injection, schedule: Q01DX001 (sc), vehicle: olive oil, sesame oil, peanut oil 96 % of control

CCC(=O)OC1(c2ccccc2)CCN(C)CC1C (stereo not drawn)
inactive: dose: 5.0 mg/kg/injection, schedule: Q01DX001 (ip), vehicle: saline 105 % of control | dose: 10.0 mg/kg/injection, schedule: Q01DX001 (ip), vehicle: saline 105 % of control | dose: 20.0 mg/kg/injection, schedule: Q01DX001 (ip), vehicle: saline 102 % of control | dose: 40.0 mg/kg/injection, schedule: Q01DX001 (ip), vehicle: saline 103 % of control | dose: 80.0 mg/kg/injection, schedule: Q01DX001 (ip), vehicle: saline 102 % of control

COc1ccc(C(=S)N2CCN(c3ccc(C)cc3)CC2)cc1
inactive: [13] 98 % of control | [14] 95 % of control | [15] 95 % of control

NC(=O)N/N=C1\CC2C=CCC12 (stereo not drawn)
inactive: [6] 94 % of control | [12] 92 % of control | [16] 108 % of control

CCCCCCCCC1NC1CCCCCCCCO (stereo not drawn)
inactive: [9] 103 % of control | [10] 103 % of control | [11] 100 % of control

Cc1cc2ccccc2c(N=Cc2cc(Br)cc(Br)c2O)c1C#N
inactive: [6] 92 % of control and 98 % of control and 90 % of control | dose: 200.0 mg/kg/injection, schedule: Q01DX003 (ip), vehicle: saline with Tween-80 87 % of control | [12] 93 % of control and 98 % of control and 90 % of control | [16] 97 % of control and 101 % of control and 104 % of control

Clc1nc2ncn3cnnc3c2[nH]1
inactive: dose: 100.0 mg/kg/injection, schedule: Q01DX001 (ip), vehicle: Klucel (hydroxypropylcellulose) (HPC) 108 % of control | dose: 200.0 mg/kg/injection, schedule: Q01DX001 (ip), vehicle: Klucel (hydroxypropylcellulose) (HPC) 98 % of control | dose: 400.0 mg/kg/injection, schedule: Q01DX001 (ip), vehicle: Klucel (hydroxypropylcellulose) (HPC) 93 % of control

CC(=O)OCN1C(=O)N(COC(C)=O)C(c2ccccc2)(c2ccccc2)C1=O
inactive: dose: 100.0 mg/kg/injection, schedule: Q01DX009 (ip), vehicle: saline with Tween-80 102 % of control | dose: 100.0 mg/kg/injection, schedule: Q04DX002 (ip), vehicle: saline with Tween-80 102 % of control | dose: 200.0 mg/kg/injection, schedule: Q01DX009 (ip), vehicle: saline with Tween-80 87 % of control | dose: 200.0 mg/kg/injection, schedule: Q04DX002 (ip), vehicle: saline with Tween-80 102 % of control | dose: 400.0 mg/kg/injection, schedule: Q04DX002 (ip), vehicle: saline with Tween-80 106 % of control

NSc1ccc([N+](=O)[O-])cc1
inactive: dose: 12.5 mg/kg/injection, schedule: Q01DX001 (ip), vehicle: other 102 % of control | dose: 25.0 mg/kg/injection, schedule: Q01DX001 (ip), vehicle: other 97 % of control | dose: 50.0 mg/kg/injection, schedule: Q01DX001 (ip), vehicle: other 101 % of control | [13] 96 % of control | [14] 97 % of control | [15] 103 % of control

C1CN=C(C2=NCCCN2)NC1
inactive: [7] 107 % of control and 101 % of control | [3] 98 % of control | [8] 98 % of control and 101 % of control | [4] 98 % of control | dose: 400.0 mg/kg/injection, schedule: Q01DX009 (ip), vehicle: saline 92 % of control and 102 % of control | [5] 102 % of control
